# Key:
# Assay in all cases: relative viability (nuclei count vs DMSO), 5 days (fraction); higher = more cells survive
# Entinostat + Lapatinib = compound: Nc1ccccc1NC(=O)c1ccc(CNC(=O)OCc2cccnc2)cc1 [Entinostat] + CS(=O)(=O)CCNCc1ccc(-c2ccc3ncnc(Nc4ccc(OCc5cccc(F)c5)c(Cl)c4)c3c2)o1 [Lapatinib] (partner 2 µM)
# In short: (§1)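 Relative viability equals treated-well nuclei counts divided by vehicle-well nuclei counts. Counts came from 4× images of lung cancer cell lines grown in 1536-well plates for 5 days after pin-tool dosing on the day after seeding. Dosing used one drug alone or a fixed anchor-drug dose plus five library-drug doses (not always all listed) in √10 steps, and values are medians of duplicate plates.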
# Entinostat + Tozasertib = compound: Nc1ccccc1NC(=O)c1ccc(CNC(=O)OCc2cccnc2)cc1 [Entinostat] + Cc1cc(Nc2cc(N3CCN(C)CC3)nc(Sc3ccc(NC(=O)C4CC4)cc3)n2)n[nH]1 [Tozasertib] (partner 0.1 µM)
# In short: as §1
# SGI-1776 + Pemetrexed = compound: CN1CCC(CNc2ccc3ncc(-c4cccc(OC(F)(F)F)c4)n3n2)CC1 [SGI-1776] + Nc1nc2[nH]cc(CCc3ccc(C(=O)N[C@@H](CCC(=O)O)C(=O)O)cc3)c2c(=O)[nH]1 [Pemetrexed] (partner 0.2 µM)
# In short: as §1
# Entinostat + Bortezomib = compound: Nc1ccccc1NC(=O)c1ccc(CNC(=O)OCc2cccnc2)cc1 [Entinostat] + CC(C)C[C@H](NC(=O)[C@H](Cc1ccccc1)NC(=O)c1cnccn1)B(O)O [Bortezomib] (partner 0.002 µM)
# In short: as §1
Cell Line,relative viability (Entinostat + Lapatinib; first compound 0.02 µM),relative viability (Entinostat + Lapatinib; first compound 0.06325 µM),relative viability (Entinostat + Lapatinib; first compound 0.2 µM),relative viability (Entinostat + Lapatinib; first compound 0.6325 µM),relative viability (Entinostat + Lapatinib; first compound 2 µM),relative viability (Entinostat + Tozasertib; first compound 0.02 µM),relative viability (Entinostat + Tozasertib; first compound 0.06325 µM),relative viability (Entinostat + Tozasertib; first compound 0.2 µM),relative viability (Entinostat + Tozasertib; first compound 0.6325 µM),relative viability (Entinostat + Tozasertib; first compound 2 µM),relative viability (SGI-1776 + Pemetrexed; first compound 0.08 µM),relative viability (SGI-1776 + Pemetrexed; first compound 0.8 µM),relative viability (SGI-1776 + Pemetrexed; first compound 2.53 µM),relative viability (SGI-1776 + Pemetrexed; first compound 8 µM),relative viability (Entinostat + Bortezomib; first compound 0.02 µM),relative viability (Entinostat + Bortezomib; first compound 0.06325 µM),relative viability (Entinostat + Bortezomib; first compound 0.2 µM),relative viability (Entinostat + Bortezomib; first compound 0.6325 µM),relative viability (Entinostat + Bortezomib; first compound 2 µM)
NCI-H2170,0.289,0.3,0.304,0.244,0.216,0.685,0.677,0.461,0.391,0.172,0.225,0.287,0.254,0.295,,,,,
HCC-366,1.02,1.04,0.66,0.218,0.0452,0.0983,0.0503,0.0518,0.0518,0.0252,0.184,0.17,0.172,0.164,1.08,1.15,0.831,0.41,0.0738
NCI-H2405,1.16,1.42,1.08,1.04,0.625,0.736,0.78,0.607,0.524,0.319,1.13,1.1,0.949,0.857,1.01,1.04,0.976,0.916,0.653
COR-L 105,0.362,0.357,0.358,0.328,0.34,0.372,0.291,0.309,0.273,0.286,1.06,1.14,1.11,1.09,0.608,0.914,0.926,0.484,0.313
201T,1.02,1.03,0.959,0.937,0.665,0.898,0.811,0.589,0.501,0.385,0.325,0.339,0.348,0.301,1.09,1.11,1.05,1.01,0.872
NCI-H2228,1.12,1.02,1.08,0.457,0.315,0.258,0.142,0.207,0.0934,0.11,0.369,0.392,0.332,0.33,0.815,0.831,1.05,0.462,0.204
LCLC-103H,,,,,,0.495,0.35,0.366,0.308,0.214,0.488,0.446,0.452,0.466,1.05,1.04,1.11,0.868,0.498
NCI-H2087,1.03,0.792,0.861,0.536,0.54,0.222,0.219,0.177,0.116,0.0873,0.672,0.607,0.68,0.651,0.883,0.837,0.761,0.425,0.274
NCI-H358,0.467,0.438,0.521,0.367,0.287,0.0897,0.0965,0.0816,0.0915,0.0853,0.177,0.218,0.168,0.161,,,,,
H3255,0.21,0.309,0.161,0.145,0.156,0.48,0.468,0.503,0.315,0.204,0.602,0.609,0.649,0.471,0.797,0.844,0.577,0.401,0.28
NCI-H23,1.17,1.13,1.02,0.616,0.476,0.364,0.264,0.292,0.193,0.121,0.763,0.799,0.659,0.569,0.91,1.41,1.12,0.808,0.497
CAL-12T,0.606,0.762,0.55,0.501,0.466,0.284,0.364,0.319,0.186,0.206,1.31,1.06,1.16,1.28,1.19,0.973,0.96,0.99,0.665
A-427,1.16,1.08,1.07,0.983,0.83,0.213,0.225,0.203,0.182,0.159,1.01,1.05,0.944,0.897,0.99,0.975,0.966,0.916,0.632
HARA,0.792,0.872,0.786,0.671,0.374,0.121,0.123,0.138,0.117,0.0945,0.191,0.231,0.259,0.259,1.13,1.1,1.11,1.04,0.465
NCI-H1793,0.695,1.07,0.617,0.393,0.328,0.309,0.308,0.284,0.205,0.175,0.947,1.17,0.835,0.689,,,,,
NCI-H1623,,,,,,0.498,0.442,0.373,0.352,0.305,,,,,,,,,
NCI-H2023,0.633,0.585,0.261,0.129,0.0771,0.218,0.221,0.138,0.0768,0.0712,0.282,0.222,0.244,0.174,0.859,0.85,0.411,0.166,0.105
ABC-1,1.43,1.38,1.56,1.38,1.21,0.175,0.237,0.189,0.2,0.193,,,,,0.338,0.327,0.331,0.216,0.277
LC-2-ad,0.975,0.904,0.907,0.334,0.113,0.425,0.367,0.368,0.299,0.242,0.286,0.288,0.285,0.254,0.961,0.895,0.818,0.591,0.197
NCI-H441,,,,,,0.593,0.483,0.425,0.275,0.224,0.276,0.258,0.299,0.26,0.443,0.598,0.409,0.181,0.118
NCI-H1915,0.985,1.05,1.01,0.633,0.315,0.446,0.385,0.338,0.267,0.212,0.481,0.463,0.497,0.47,1.05,0.959,0.998,0.644,0.638
NCI-H1299,0.927,0.933,0.956,0.805,0.571,,,,,,,,,,1.04,0.985,0.934,0.858,0.732

Cell Line,relative viability (Entinostat + Lapatinib; first compound 0.02 µM),relative viability (Entinostat + Lapatinib; first compound 0.06325 µM),relative viability (Entinostat + Lapatinib; first compound 0.2 µM),relative viability (Entinostat + Lapatinib; first compound 0.6325 µM),relative viability (Entinostat + Lapatinib; first compound 2 µM),relative viability (Entinostat + Tozasertib; first compound 0.02 µM),relative viability (Entinostat + Tozasertib; first compound 0.06325 µM),relative viability (Entinostat + Tozasertib; first compound 0.2 µM),relative viability (Entinostat + Tozasertib; first compound 0.6325 µM),relative viability (Entinostat + Tozasertib; first compound 2 µM),relative viability (SGI-1776 + Pemetrexed; first compound 0.08 µM),relative viability (SGI-1776 + Pemetrexed; first compound 0.8 µM),relative viability (SGI-1776 + Pemetrexed; first compound 2.53 µM),relative viability (SGI-1776 + Pemetrexed; first compound 8 µM),relative viability (Entinostat + Bortezomib; first compound 0.02 µM),relative viability (Entinostat + Bortezomib; first compound 0.06325 µM),relative viability (Entinostat + Bortezomib; first compound 0.2 µM),relative viability (Entinostat + Bortezomib; first compound 0.6325 µM),relative viability (Entinostat + Bortezomib; first compound 2 µM)
HCC-827,0.18,0.184,0.126,0.147,0.17,0.425,0.406,0.335,0.302,0.184,0.393,0.268,0.24,0.226,0.979,1.02,0.976,0.979,0.539
EMC-BAC-2,0.873,0.956,0.901,0.682,0.499,0.302,0.254,0.228,0.17,0.229,0.438,0.452,0.458,0.425,1.11,1.16,1.1,0.898,0.516
NCI-H596,1.06,1.13,1.07,0.81,0.709,0.76,0.93,1.14,0.621,0.503,0.442,0.51,0.505,0.461,1.09,1.16,1,0.974,0.902
NCI-H1792,0.953,0.96,0.836,0.767,0.513,,,,,,0.965,0.754,0.745,0.649,0.952,0.992,1.03,0.802,0.606
NCI-H2009,0.954,0.984,0.827,0.685,0.396,0.713,0.753,0.647,0.452,0.336,0.912,1.05,1.15,0.954,1.03,1.05,0.912,0.814,0.497
SW 900,,,,,,0.573,0.62,0.515,0.282,0.206,0.488,0.486,0.493,0.46,,,,,
NCI-H1563,0.915,1.01,0.891,0.821,0.581,,,,,,0.929,0.847,0.765,0.726,0.841,0.843,0.908,0.722,0.65
SK-MES-1,0.511,0.525,0.494,0.488,0.395,0.849,0.826,0.925,0.673,0.324,1.11,1,0.999,0.647,,,,,
NCI-H727,0.941,0.804,0.793,0.533,0.451,0.605,0.647,0.497,0.392,0.403,,,,,0.714,0.965,0.754,0.574,0.329
NCI-H1944,0.851,0.768,0.787,0.354,0.271,0.224,0.215,0.204,0.162,0.132,0.727,0.757,0.591,0.559,,,,,
LK-2,0.98,1.05,1.01,0.476,0.459,0.151,0.176,0.168,0.159,0.168,0.295,0.352,0.291,0.201,,,,,
Calu-6,1.09,0.967,0.963,0.698,0.498,,,,,,,,,,1.02,1.02,0.944,0.69,0.504
NCI-H1395,1.1,1.21,0.901,0.566,0.569,0.668,0.721,0.696,0.496,0.47,0.876,0.836,0.784,0.605,,,,,
EBC-1,0.213,0.211,0.208,0.181,0.184,,,,,,,,,,0.564,0.599,0.293,0.196,0.176
NCI-H2342,,,,,,0.465,0.429,0.377,0.372,0.333,0.815,0.888,0.802,0.819,,,,,
NCI-H1703,1.22,1.17,1.59,1.05,0.453,,,,,,,,,,0.314,0.383,0.308,0.265,0.149
ChaGo-K-1,,,,,,0.256,0.227,0.211,0.197,0.19,0.269,0.267,0.287,0.242,1.41,1.02,1.09,0.94,0.623
IA-LM,0.892,0.926,1.17,0.601,0.514,,,,,,,,,,0.814,0.842,1.03,0.597,0.447
NCI-H1648,,,,,,0.566,0.483,0.414,0.411,0.341,0.617,0.868,0.688,0.683,,,,,
NCI-H522,,,,,,0.576,0.509,0.516,0.48,0.371,0.953,0.867,0.98,0.889,,,,,
A549,1,0.956,0.92,0.755,0.481,,,,,,,,,,,,,,

# — the supplement of paper PMC10307832
